In patent US7915297B2, “Isoxazole derivatives and use thereof” (SK Holdings Co., Ltd., priority 2005, dated 2011):

Assays:
[1] = tested on: Wnt/β-catenin signaling (β-catenin activity) in HEK293 cell line; test: Cell-based Wnt agonist screening, TCF luciferase reporter, HEK293 (TCF-FL); design: species or system human; conditions: Homo sapiens, HEK293, 24 h, % of LiCl (20 mM), 24 h, read-out: Max. Activity (%); for Emax at 10 µM: Conc. 10 μM; for Emax at 30 µM: Conc. 30 μM
Method in brief: (§1)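 HEK293 and SW480 lines stably carried a 5X TCF firefly luciferase reporter under G418 selection. Cells (8,000–15,000/well, RPMI 1640 with 5% FBS) were grown 24 h, then treated with compound for 24 h. Luciferase activity was expressed as percent of the 20 mM LiCl positive control.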

[2] = tested on: ST-2, a murine bone marrow stromal T cell; test: Differentiation of ST2 cell line into osteoblasts, alkaline phosphatase activity; type: cell-based; conditions: Mus musculus, 96 h; ST-2 cells, 11 μM compound, 4 days; control treated only with ascorbic acid and β-glycerolphosphate = 100; read-out: ALP Activity (% Control)
Procedure: The derivatives synthesized according to the present invention were assayed for their ability to differentiate stem cells into osteoblasts. In this regard, ST-2, a murine bone marrow stromal T cell, was used to measure the activity of bone-specific alkaline phosphatase, a marker of early-stage osteoblast differentiation. In detail, the cell line was cultured in an MEM supplemented with penicillin-streptomycin (100 Units/mL) and heat-inactivated 5% fetal bovine serum under standard culture conditions (5% CO2, 37° C., 100% relative humidity). […] The suspension was diluted with the same medium to adjust the cell count to 5,000˜10,000 cells per well, and was moved in a 96-well microtiter, subsequently. After being incubated for 24 hrs, the cells were treated in a medium containing 50 μg/ml of ascorbic acid and 5 mM of β-glycerolphosphate with various concentrations of the isoxazole derivatives synthesized in Preparation Examples. During incubation for one to nine days, the Alkaline phosphatase activity was analyzed using a […] Assay kit (Promega, U.S.A.) according to the protocol described in the manual provided by the manufacturer. The activities were measured in cells which had been incubated at 11 μM of each of the compounds for 4 days. Data on the activities of the isoxazole derivatives synthesized are given in Tables 44 to 47 and are expressed as percentages of ALP relative to that measured in the control, which was treated only with ascorbic acid and β-glycerolphosphate. ALP activities according to the concentrations of Derivative (1) are depicted in FIG. 5.

[3] = tested on: Wnt/β-catenin signaling (β-catenin activity) in SW480 cell line; test: Cell-based Wnt agonist screening, TCF luciferase reporter, SW480 (TCF-FL); design: species or system human; conditions: Homo sapiens, % of LiCl (20 mM), 24 h, read-out: Max. Activity (%); for Emax at 10 µM: Con. 10 μM; for Emax at 30 µM: Con. 30 μM; for Emax at 120 µM: Con. 120 μM; for Emax at 1 µM: Con. 1 μM
Method in brief: as §1

Compound	activity at 11 µM [2] [%]	Emax at 30 µM [3] [%]	Emax at 120 µM [3] [%]	other results
O=C(NCCn1cncn1)c1cc(-c2ccc(Cl)cc2)on1 [Derivative (97), 5-(4-chloro-phenyl)-isoxazole-3-carboxylic acid (2-[1,2,4]triazol-1-yl-ethyl)-amide]	91			Emax at 10 µM [1]: 53%; Emax at 10 µM [3]: 53%
COc1ccc(CCNC(=O)c2cc(-c3ccco3)on2)cc1 [Derivative (21), 5-furan-2-yl-isoxazole-3-carboxylic acid [2-(4-methoxy-phenyl)-ethyl]-amide]	334	287		Emax at 30 µM [1]: 23%
COc1cccc(-c2cc(C(=O)NCCc3ccncc3)no2)c1 [Derivative (103), 5-(3-methoxy-phenyl)-isoxazole-3-carboxylic acid (2-pyridin-4-yl-ethyl)-amide]	103			Emax at 10 µM [1]: 42%; Emax at 10 µM [3]: 42%
O=C(NCCc1ccc(O)c(O)c1)c1cc(-c2ccco2)on1 [Derivative (28), 5-furan-2-yl-isoxazole-3-carboxylic acid [2-(3,4-dihydroxy-phenyl)-ethyl]-amide]	436	< 20		Emax at 30 µM [1]: < 20%
COc1ccc(-c2cc(C(=O)NCCCn3ccnc3)no2)cc1 [Derivative (101), 5-(4-methoxy-phenyl)-isoxazole-3-carboxylic acid (3-imidazol-1-yl-propyl)-amide]	592		205	Emax at 120 µM ([1]; Conc. 120 μM): 205%
O=C(NCCCn1cncn1)c1cc(C2CCCCC2)on1 [Derivative (165), 5-cyclohexyl-3-isoxazole-3-carboxylic acid (3-[1,2,4]-triazol-1-yl-propyl)-amide]	92	45		
O=C(NCCCn1ccnc1)c1cc(C2CCCCC2)on1 [Derivative (164), 5-cyclohexyl-3-isoxazole-3-carboxylic acid (3-imidazol-1-yl-propyl)-amide]	241		55	
O=C(CNC(=O)c1cc(-c2ccco2)on1)c1ccccc1 [Derivative (205), 5-furan-2-yl-isoxazole-3-carboxylic acid (2-oxo-2-phenyl-ethyl)-amide]	58			Emax at 10 µM [3]: 59%
Cn1cccc1-c1cc(C(=O)NCCCn2ccnc2)no1 [Derivative (149), 5-(1-methyl-1H-pyrrol-2-yl)-isoxazole-3-carboxylic acid (3-imidazol-1-yl-propyl)-amide]	275	70		
O=C(NCCS(=O)(=O)Nc1ccccc1)c1cc(-c2cccs2)on1 [Derivative (220), 5-thiophen-2-yl-isoxazole-3-carboxylic acid (2-phenylsulfamoyl-ethyl)-amide]	187		182	
O=C(NCCN(c1ccccc1)c1ccccc1)c1cc(-c2ccco2)on1 [Derivative (196), 5-furan-2-yl-isoxazole-3-carboxylic acid (2-diphenylamino-ethyl)-amide]	77	35		
COc1ccc(N2CCN(CCNC(=O)c3cc(-c4ccco4)on3)CC2)c(OC)c1 [Derivative (187), 5-furan-2-yl-isoxazole-3-carboxylic acid {2-[4-(2,4-dimethoxyphenyl)-piperazin-1-yl]-ethyl}-amide]	99		179	
O=C(NCCNC(=O)c1cc(-c2cccs2)on1)c1ccccc1 [Derivative (210), 5-thiophen-2-yl-isoxazole-3-carboxylic acid (2-benzoylamino-ethyl)-amide]	202			Emax at 1 µM [3]: 475%
Cc1ccc(N2CCN(CCNC(=O)c3cc(-c4ccco4)on3)CC2)cc1 [Derivative (183), 5-furan-2-yl-isoxazole-3-carboxylic acid {2-[4-(4-methylphenyl)-piperazin-1-yl]-ethyl}-amide]	127		114	
O=C(NCCN1CCOCC1)c1cc(-c2ccco2)on1 [Derivative (175), 5-furan-2-yl-isoxazole-3-carboxylic acid (2-morpholin-4-yl-ethyl)-amide]	767			Emax at 1 µM [3]: 383%
O=C(NCCNc1ccc(Cl)cc1)c1cc(-c2ccco2)on1 [Derivative (198), 5-furan-2-yl-isoxazole-3-carboxylic acid [2-(4-chloro-phenylamino)-ethyl]-amide]	100	50		
O=C(NCCSc1ccccc1)c1cc(-c2cccs2)on1 [Derivative (218), 5-thiophen-2-yl-isoxazole-3-carboxylic acid (2-phenylsulfanyl-ethyl)-amide]	128	55		
O=C(NCCNC(=O)c1cc(-c2cccs2)on1)Nc1ccccc1 [Derivative (211), 5-thiophen-2-yl-isoxazole-3-carboxylic acid [2-(3-phenyl-urido)-ethyl]-amide]	204	158		
O=C(NCCn1cncn1)c1cc(-c2cc3ccccc3o2)on1 [Derivative (171), 5-benzofuran-2-yl-isoxazole-3-carboxylic acid (2-[1,2,4]triazol-1-yl-ethyl)-amide]	74		43	
O=C(NCCCn1ccnc1)c1cc(-c2cc3ccccc3o2)on1 [Derivative (169), 5-benzofuran-2-yl-isoxazole-3-carboxylic acid (3-imidazol-1-yl-propyl)-amide]	83			Emax at 1 µM [3]: 43%
Cn1cccc1-c1cc(C(=O)NCCn2cncn2)no1 [Derivative (151), 5-(1-methyl-1H-pyrrol-2-yl)-isoxazole-3-carboxylic acid (2-[1,2,4]triazol-1-yl-ethyl)-amide]	151	41		
O=C(CNC(=O)c1cc(-c2ccco2)on1)Nc1ccccc1 [Derivative (207), 5-furan-2-yl-isoxazole-3-carboxylic acid phenylcarbamoylmethyl-amide]	47		34	
Cc1nccn1CCCNC(=O)c1cc(-c2ccco2)on1 [Derivative (44), 5-furan-2-yl-isoxazole-3-carboxylic acid [3-(2-methyl-imidazol-1-yl)-propyl]-amide]	997		657	
O=C(NCCCn1ccnc1)c1cc(-c2ccc[nH]2)on1 [Derivative (160), 5-(1H-pyrrol-2-yl)-isoxazole-3-carboxylic acid (3-imidazol-1-yl-propyl)-amide]	158		146	
O=C(NCCCn1cncn1)c1cc(-c2ccc[nH]2)on1 [Derivative (159), 5-(1H-pyrrol-2-yl)-isoxazole-3-carboxylic acid (3-[1,2,4]triazol-1-yl-propyl)-amide]	130	128		
O=C(NCCn1cnnn1)c1cc(-c2ccco2)on1 [Derivative (43), 5-furan-2-yl-isoxazole-3-carboxylic acid (2-tetrazol-1-yl-ethyl)-amide]	455		357	
COc1cccc(N2CCN(CCNC(=O)c3cc(-c4ccco4)on3)CC2)c1 [Derivative (185), 5-furan-2-yl-isoxazole-3-carboxylic acid {2-[4-(3-methoxyphenyl)-piperazin-1-yl]-ethyl}-amide]	714	810		
COc1ccc(N2CCN(CCNC(=O)c3cc(-c4ccco4)on3)CC2)cc1 [Derivative (181), 5-furan-2-yl-isoxazole-3-carboxylic acid {2-[4-(4-methoxyphenyl)-piperazin-1-yl]-ethyl}-amide]	681			Emax at 1 µM [3]: 73%
O=C(NCCCn1cncn1)c1cc(N2CCOCC2)on1 [Derivative (162), 5-morpholin-4-yl-isoxazole-3-carboxylic acid (3-[1,2,4]-triazol-1-yl-propyl)-amide]	60			Emax at 10 µM [3]: 30%
O=C(NCCN1CCNCC1)c1cc(-c2ccco2)on1 [Derivative (176), 5-furan-2-yl-isoxazole-3-carboxylic acid (2-piperazin-1-yl-ethyl)-amide]	179	93		
